One data set in a line: in vitro. The following applies: dog.
The next data set concerns C. elegans N2. The experiment in a line: whole plant or invertebrate. The format is cell-based, Caenorhabditis elegans. The following applies: Caenorhabditis elegans, 48 h, read-out: MMIC N2. An excerpt: (§1) The cuticle of C. elegans strain DC19 is known to be more permeable for small molecules compared to the wildtype N2.[30] DC19 is thereby considered an informative drug-sensitive test organism. In our assays, we determined the minimum mobility inhibitory concentration (MMIC) as a proxy for anthelmintic activity. […] In contrast, MMICs of some small molecule anthelmintics such as albendazole, mebendazole or PF-1022A were lower for DC19 (Fig. S1 ^†). […]
(§2) 2.2 In vitro tests against Caenorhabditis Elegans
(§3) The minimal motility inhibitory concentration (MMIC) of compounds 1-22 against C. elegans was determined as described before.3 Both strains, C. elegans N2 and DC19 were treated identically. Briefly, pre-cultures of C.elegans were kept on NGM agar plates infused with auxotrophic E.coli OP50 as food source.4 After 4 days the plates contained sufficient gravid worms, respectively. Worms were washed from the plates with M9 buffer using wide bore pipette tips. Egg preparation was carried out by treating the harvested worms with an alkaline hypochlorite solution (5 M NaOH + 5 % NaOCl 1:2) in polypropylene tubes. Larvae and adult […]
(§4) We carried out 3 washing steps (M9 buffer) to remove carry-over hypochlorite solution. Subsequently, the eggs were incubated overnight in NGM broth on a rotator to yield synchronized hatched L1/L2 larvae. The larvae solution was adjusted to 100 worms/mL and supplemented with cholesterol (5 µg/mL), carbenicillin (25 µg/mL) and E.coli OP50 (0.5%). This assay solution was distributed into 96 well plates and incubated with a dilution series of compounds 1-22 (64-0.5 µg/mL). An additional eight-point dilution series of ivermecin (40 – 0.3 ng/mL) was used as positive control on each assay plate. Solvent background was controlled by supplementation of pure DMSO without any compound. Assays were incubated for 2 days at room temperature. Finally, a cell imaging multimode reader (Cytation™ 5) was used to record short videos (1.5 seconds) of each individual test well. The videos were used to evaluate the worm motility.

Another data set deals with C. elegans DC19. In words: whole plant or invertebrate. Format: cell-based, Caenorhabditis elegans. The following applies: Caenorhabditis elegans, 48 h, read-out: MMIC DC19.
Source text: as §1, §2, §3, §4

The test system of data set [1] is Septoria tritici MUCL45408. The experiment in a line: Minimum inhibitory concentration (MIC), S. tritici (ATP quantification). The format is cell-based. The following applies: Zymoseptoria tritici, MUCL45408, 96 h, read-out: MIC St. The protocol:
(§5) The minimum inhibitory concentration (MIC) of the synthesized compounds was initially determined against three microbial indicator strains (Escherichia coli ATCC35218, […] ATCC33592, Septoria tritici MUCL45408). […]
(§6) 2. Microbial and parasitological studies
(§7) The minimum inhibitory concentration (MIC) of the synthesized compounds was determined against three microbial indicator strains (E. coli ATCC35218, S. aureus ATCC33592 and S. tritici MUCL45408) as previously described.1,2 All samples were dissolved in DMSO and tested in triplicate. Briefly, a pre-culture of E. coli and S. aureus was prepared by incubating the strains in cation adjusted Mueller Hinton 2 broth (Becton Dickinson, Sparks, NV, USA) at 37°C and 180 rpm overnight. The cell density of adjusted to 5 × 10^5 cells/mL before assays were incubated at 37 °C, 180 rpm and 85% rH. Three distinct dilution series of standard antibiotics (gentamicin, rifampicin, and tetracycline) were used as positive controls on each assay plate. Inoculated medium without test compound or positive control was used as negative control.
Medium background was averaged from 5 replicates. The turbidity of each well was measured with a microplate spectrophotometer at 600 nm (LUMIstar® Omega, BMG Labtech) and growth inhibition was calculated relative to the absorption of the controls. For S. tritici MUCL45408 inoculated at a density of 1 × 10^5 cells/mL in potato […]
dextrose medium. Septoria assay plates were incubated for 4 days at 25 °C, 180 rpm and 85% rH. Tebuconazole, amphotericin B, and nystatin were used as positive controls. Cell viability was evaluated via ATP quantification (BacTiter-Glo™, Promega GmbH, Walldorf, Germany) according to the manufacturer’s instructions. […]

Data set [2] deals with C. elegans strains N2 and DC19. The experiment in a line: MMIC against C. elegans, strains N2 and DC19 reported together or strain not stated. The format is cell-based. The conditions noted are these: Caenorhabditis elegans, 48 h.
Source text: as §1, §2, §3, §4

The subject of the next data set is MDCK II cells. The experiment in a line: In vitro cytotoxicity, CellTiter-Glo, MDCK II cells. The conditions noted are these: 100 μM; for MDCKII cytotoxicity: 48 h, cell viability less than 80% relative to DMSO control = cytotoxic. In general terms: In ATP-based viability assays light output follows the ATP content of the culture.
In a further data set the test system is S. aureus ATCC33592. The experiment in a line: microbe, parasite or virus in culture. Format: cell-based. The following applies: Staphylococcus aureus, ATCC33592, read-out: MIC Sa. The method, then:
as §5, §6
as §7, with “and tetracycline) were used as positive controls on each assay plate. Inoculated medium without test compound or positive control was used as negative control.” left out
(§8) medium without test compound or positive control was used as negative control.
(§9) Medium background was averaged from 5 replicates. The turbidity of each well was […]

For data set [3], the system named is Escherichia coli ATCC35218. The experiment in a line: microbe, parasite or virus in culture. The conditions noted are these: ATCC35218, read-out: MIC Ec. Format: cell-based. The protocol:
as §5, §6
as §7, with “and tetracycline) were used as positive controls on each assay plate. Inoculated medium without test compound or positive control was used as negative control.” left out
as §8, §9

Another data set relates to Schistosoma mansoni. In words: In vitro tests against Schistosoma mansoni (vitality parameters of adult worm pairs). The format is cell-based. The conditions noted are these: for Effect on S. mansoni: 10 and 20 μM, up to 7 days, Det: detachment of suckers, Mot: motility reduction, Sep: pair separation; for activity against S. mansoni (100% effect strength in one parameter within 7 days = active): 10 or 20 μM; for lethal effects: after seven days; for sucker detachment: after three days. The protocol: Subsequently, we tested whether compounds with nematocidal activity display a broader activity also against parasitic flatworms. To this end, in vitro tests against the blood fluke S. mansoni were conducted (Fig. 4). The worms were incubated in presence of 10 and 20 μM of compounds 1–22 and phenotypic vitality parameters (separation of worm pairs, detachment of suckers from the bottom of the well and weakening of body movements) were assessed as previously described.[31] Compounds reaching 100% effect strength in one of the parameters within 7 days were considered active. Reduction of motility is considered most relevant for antischistosomal drug candidates.[32] In addition, loss of sucker activity would make parasites drifting off from their host habitat (mesenteric veins) and with pair separation, the production of pathology-causing eggs eventually ceases.[33] […] For some molecular targets e.g. glutamate and GABA chloride channels (ivermecin, abamectin) and β-tubulin (albendazole, mebendazole) the C. elegans assays results were transferable to Schistosoma, while for others e.g. acetylcholin mimetic (levamisole) the C. elegans MMIC was not predicative (Fig. S1 ^†).
2.2 Parasitological studies
Animal experiments were performed in accordance with Directive 2010/63/EU on the protection of animals used for scientific purposes and the German Animal Welfare Act. The experiments were approved by the Regional Council (Regierungspraesidium) Giessen (V54 – […]
A Liberian strain of S. mansoni was maintained in the freshwater snail Biomphalaria glabrata as intermediate host and Syrian hamsters (Mesocricetus auratus) as final host (Janvier Labs, France).5,6 Hamsters were infected at 8 weeks of age with 1,750 cercariae by using the paddling method.7 Adult worms were collected at 46 days p.i. by hepatoportal perfusion and cultured in M199 medium (Sigma-Aldrich, Germany) supplemented with 10% Newborn Calf Serum (NCS, Sigma-Aldrich), 1% 1 M HEPES (ThermoFisher Scientific, USA) and 1% ABAM solution (10,000 units/ml penicillin, 10 mg/ml streptomycin and […] amphotericin B; Sigma-Aldrich, Germany) at 37 °C, 5% CO2 and humidified atmosphere.
2.2.3. In vitro tests against Schistosoma mansoni
Test compounds were added at 10 µM or 20 µM in supplemented M199 medium to schistosomes (5 worm pairs per replicate) followed by a 7 d in vitro culture. Worms receiving the solvent DMSO at equal dilution served as negative control. The following vitality parameters were assessed every 24 h by bright field microscopy using a Leica DM IL inverted microscope and x2.5 objective lens: separation of worm pairs into male and female worms; detachment of suckers from the bottom; and weakening of body movements. Worm motility was scored as described previously, 8 with the scores 3 (normal motility), 2 (reduced motility), 1 (minimal and sporadic movements), 0 (no movements within 20 sec; dead worms). An average score of all worms per well was calculated to obtain a motility score. An average motility score of 0, separation of all pairs or detachment of all worms per well was considered

[4] abbreviates: C. elegans, read-out: MMIC N2 and DC19.

Values after ≈ are worked out from the molar mass of the structure shown. “Also recorded” adds a separate entry of the source. Like-named read-outs stand apart in the source and are kept apart here. A value given as a limit tells only on which side of the number the result lay.

`CC1(C)CC(Cl)CN(Cc2cc(CN3CC(Cl)CC(C)(C)C3)cc([N+](=O)[O-])c2)C1` (stereo not shown) [Compound 5]: the CC50 in the data set “in vitro” is over 1000 µM. The minimal effective concentration in the data set with C. elegans N2 was 16 µg/mL; in the data set with C. elegans DC19, 16 µg/mL; in [2] (setting [4]), under 20 µg/mL. Further, the MIC (in data set [1]; with S. aureus ATCC33592; in data set [3]) was over 64 µg/mL each time. Moreover, the MDCKII cytotoxicity result in the data set with MDCK II cells is given as “− (“−” (not toxic))”. Also, the “sucker detachment of Schistosoma worm pairs” value with Schistosoma mansoni (10 μM) is listed as “full sucker detachment”. In the data set on Schistosoma mansoni, the “Effect on S. mansoni” value is given as “Det, Sep, Lethal”. In addition, the “activity against S. mansoni (100% effect strength in one parameter within 7 days = active)” value in the data set on Schistosoma mansoni was “showed an effect on S. mansoni; also recorded: active at 10 μM”. In the data set on Schistosoma mansoni (score 3 normal motility to 0 dead, paragraph on 20 μM), the motility score is given as 1–1.2.

Turning to `COC(=O)[C@H](CCCCN1CC(Cl)CC(C)(C)C1)N1CC(Cl)CC(C)(C)C1` (stereo partly shown) [Compound 11], the CC50 in “in vitro” worked out at 123 µM. For the same compound, the minimal effective concentration in the data set with C. elegans N2 and in the data set on C. elegans DC19 was over 64 µg/mL each time. Also, the MIC (in data set [1]; with S. aureus ATCC33592; in [3]) was over 64 µg/mL throughout. Further, the MDCKII cytotoxicity entry in the data set on MDCK II cells was “− (“−” (not toxic))”. The “detachment of suckers and pair separation” value in the data set on Schistosoma mansoni (20 μM, after 7 days incubation) is “detachment of suckers and pair separation”. Moreover, in the data set on Schistosoma mansoni, the “Effect on S. mansoni” value was “Det, Sep”. In the data set on Schistosoma mansoni, the “activity against S. mansoni (100% effect strength in one parameter within 7 days = active)” value is listed as “Schistosoma-specific; also recorded: active at 20 μM”.

The compound `COc1cc(CN2CC(Cl)CC(C)(C)C2)cc(CN2CC(Cl)CC(C)(C)C2)c1` (stereo not shown) [Compound 2] came in with a CC50 in “in vitro” of 83 µM. Moreover, in data set [1], the MIC worked out at 64 µg/mL (≈ 150 µM). Moreover, in data set [2] (setting [4]), the minimal effective concentration was under 20 µg/mL. In the data set on MDCK II cells, the “cytotoxicity against MDCK II (in words)” value is listed as “did not exhibit cytotoxic properties” and the MDCKII cytotoxicity entry is recorded as “− (“−” (not toxic))”. The MIC in the data set with S. aureus ATCC33592 was over 64 µg/mL. Moreover, the MIC in [3] is over 64 µg/mL. Besides, in the data set on Schistosoma mansoni (20 μM), the lethal effects entry is on record as “lethal effect” and the sucker detachment result is recorded as “sucker detachment already after three days”. In the data set on Schistosoma mansoni, the “Effect on S. mansoni” value is “Det, Sep, Mot, Lethal” and the “activity against S. mansoni (100% effect strength in one parameter within 7 days = active)” value is recorded as “showed an effect on S. mansoni; also recorded: active at 20 μM”.

With `CN(C)c1cc(CN2CC(Cl)CC(C)(C)C2)cc(CN2CC(Cl)CC(C)(C)C2)c1` (stereo not shown) [Compound 3], the minimal effective concentration in the data set on C. elegans N2 was 16 µg/mL; in [2] (setting [4]) it was under 20 µg/mL. Also, the MIC (in data set [1]; in the data set with S. aureus ATCC33592; in data set [3]) was over 64 µg/mL in each case. Moreover, in the data set on MDCK II cells, the “cytotoxicity against MDCK II (in words)” value was “cytotoxic”. Also, the MDCKII cytotoxicity entry in the data set on MDCK II cells was “+ (“+” (toxic))”. Further, in the data set with Schistosoma mansoni (20 μM), the lethal effects result is “lethal effects”. The sucker detachment result in the data set on Schistosoma mansoni (20 μM) is “sucker detachment already after three days”. Further, in the data set with Schistosoma mansoni, the “activity against S. mansoni (100% effect strength in one parameter within 7 days = active)” value was “showed an effect on S. mansoni”.

`CC1(C)CC(Cl)CN(Cc2cc(CN3CC(Cl)CC(C)(C)C3)cc(CN3CC(Cl)CC(C)(C)C3)c2)C1` (stereo not shown) [Compound 21]: the CC50 in the data set “in vitro” is over 1000 µM. Besides, the MIC (in [1]; with S. aureus ATCC33592; in data set [3]) was over 64 µg/mL throughout. Besides, in data set [2] (setting [4]), the minimal effective concentration was under 20 µg/mL. The “cytotoxicity against MDCK II (in words)” value in the data set on MDCK II cells was “did not exhibit cytotoxic properties”. Also, the MDCKII cytotoxicity entry in the data set on MDCK II cells is listed as “− (“−” (not toxic))”. Besides, the “activity against S. mansoni (100% effect strength in one parameter within 7 days = active)” value in the data set on Schistosoma mansoni is given as “did not affect Schistosoma”.

Take `CC1(C)CC(Cl)CN(CCN2CC(Cl)CC(C)(C)C2)C1` (stereo not shown) [Compound 15]: the minimal effective concentration is over 64 µg/mL in the data set with C. elegans N2; over 64 µg/mL in the data set on C. elegans DC19; at least 64 µg/mL in data set [2] (read-out: MMIC N2 and DC19, C. elegans). Moreover, the MIC (in data set [1]; in the data set on S. aureus ATCC33592; in data set [3]) was over 64 µg/mL throughout. For the same compound, the MDCKII cytotoxicity result in the data set with MDCK II cells is recorded as “+ (“+” (toxic))”.

The values are drawn from PMC11718441, “Bis-3-chloropiperidines: a novel motif for anthelmintic drug design” (RSC Advances, 2025).
